This is an account of results in US5336690A, “Aminosulfonyl carbamates composition and method of use to treat hypercholesterolemia and atherosclerosis” (Warner-Lambert Company, priority 1993, dated 1994).

Counter-ions that a name gives are not always drawn. Like-named read-outs stand apart in the source and are kept apart here. Bounds are passed on as bounds.

Test [1] concerns the target T1, acyl-CoA: cholesterol acyltransferase (ACAT) (Oryctolagus cuniculus, UniProt G1SFD9).
T1 construct: tissue preparation containing rabbit intestinal microsomes; from tissue; host or cells: rabbit intestinal microsomes
T1 sequence (G1SFD9 1-524): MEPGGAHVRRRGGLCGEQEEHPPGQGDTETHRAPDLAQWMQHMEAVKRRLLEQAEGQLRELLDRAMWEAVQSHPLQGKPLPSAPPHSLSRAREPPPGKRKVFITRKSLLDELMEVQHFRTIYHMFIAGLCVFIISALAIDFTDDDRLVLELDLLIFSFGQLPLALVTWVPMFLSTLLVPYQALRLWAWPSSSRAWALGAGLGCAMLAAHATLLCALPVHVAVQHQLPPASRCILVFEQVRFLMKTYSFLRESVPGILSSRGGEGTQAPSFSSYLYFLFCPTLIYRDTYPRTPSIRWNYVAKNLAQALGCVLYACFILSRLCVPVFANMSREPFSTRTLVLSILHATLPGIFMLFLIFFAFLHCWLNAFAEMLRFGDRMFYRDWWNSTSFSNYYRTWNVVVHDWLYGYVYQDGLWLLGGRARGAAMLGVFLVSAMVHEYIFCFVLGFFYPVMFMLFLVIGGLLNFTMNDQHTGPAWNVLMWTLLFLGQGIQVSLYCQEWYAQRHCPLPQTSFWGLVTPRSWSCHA
Kind of test: in vitro ACAT inhibition (IAI): formation of radiolabeled cholesterol oleate from radiolabeled oleic acid in rabbit intestinal microsomes. The test is classed as biochemical. The method, then:
The ability of representative compounds of the present invention to inhibit ACAT was measured using an in vitro test more fully described in F. J. Field and R. G. Salone, Biochemica et Biophysica 712:557-570 (1982). The test assesses the ability of a test compound to inhibit the acylation of cholesterol by oleic acid by measuring the amount of radiolabeled cholesterol oleate formed from radiolabeled oleic acid in a tissue preparation containing rabbit intestinal microsomes.

Test [2] is described as follows: APCC in vivo screen: blood cholesterol in male Sprague-Dawley rats on high fat, high cholesterol diet with 0.5% cholic acid. The conditions noted are these: single dose 30 mg/kg, high fat high cholesterol diet overnight; for % Change (mg/dl) (cholesterol): 30 mg/kg; for change in vivo at 30 mg/kg: read-out: % Change (mg/dl) (cholesterol). The text has this:
In one in vivo screen designated APCC, male Sprague-Dawley rats (200 to 225 g) were randomly divided into treatment groups and dosed at 4 PM with either vehicle (CMC/Tween) or suspensions of compounds in vehicle. The normal chow diet was then replaced with a high fat, high cholesterol diet with 0.5% cholic acid. The rats consumed this diet ad libitum during the night and were sacrificed at 8 AM to obtain blood samples for cholesterol analysis using standard procedures. Statistical differences between mean cholesterol values for the same vehicle were determined using analysis of variance followed by Fisher's least significant test. The compounds were dosed at 30 mg/kg unless otherwise noted.

Where [3] appears, read: rabbit intestinal microsomes, read-out: IAI IC50.

On to `COC(=O)NS(=O)(=O)Nc1c(C(C)C)cccc1C(C)C` [Example 1, Methyl [[2,6-bis(1-methylethyl)phenylamino]sulfonyl]carbamate], for which the concentration for half-maximal inhibition (IC50) (usually the concentration that inhibits the measured activity by half) in test [1] (setting [3]) was greater than 100 µM.

With `CCCCN(CCCC)S(=O)(=O)NC(=O)Oc1c(C(C)C)cccc1C(C)C` [Example 11, 2,6-Bis(1-methylethyl)phenyl[(dibutylamino)sulfonyl]carbamate], the half-inhibitory concentration (IC50) in test [1] (setting [3]) is 1.9 µM. For the same molecule, the “% Change (mg/dl) (cholesterol)” value in test [2] (rat) is on record as -57 % Change (mg/dl).

With `Cc1cc(C(C)(C)C)c(OC(=O)NS(=O)(=O)N(C)CCc2ccccc2)c(C(C)(C)C)c1` [Example 27, 2,6-Bis(1,1-dimethylethyl)-4-methylphenyl[[methyl(2-phenylethyl)amino]sulfonyl]carbamate], in test [1] (setting [3]), the IC50 worked out at 18.9 µM. Moreover, the change in vivo at 30 mg/kg in test [2] (Rattus norvegicus) was -29%.

In the case of `Cc1cc(C(C)(C)C)c(OC(=O)NS(=O)(=O)N(C)CCc2ccccn2)c(C(C)(C)C)c1` [Example 32, 2,6-Bis(1,1-dimethylethyl)-4-methylphenyl[[[methyl 2-(2-pyridinyl)ethyl]amino]sulfonyl]carbamate, hydrochloride salt], in test [1] (setting [3]), the IC50 came out at 31 µM. Moreover, the “% Change (mg/dl) (cholesterol)” value in test [2] (rat, hydrochloride salt) was -10 % Change (mg/dl).

As to `CCCCCCCCCCCCOC(=O)NS(=O)(=O)Nc1c(OC)cc(OC)cc1OC` [Example 43, Dodecyl[[(2,4,6-trimethoxyphenyl)amino]sulfonyl]carbamate], in test [2] (rat), the change in vivo at 30 mg/kg is -8%.

For `CC(C)c1cccc(C(C)C)c1OC(=O)NS(=O)(=O)N1CCOCC1` [Example 50, 2,6-Bis(1-methylethyl)-phenyl ester(4-morpholinylsulfonyl)-carbamic acid], in test [1] (setting [3]), the IC50 was greater than 100 µM. Further, the change in vivo at 30 mg/kg in test [2] (Rattus norvegicus) is -14%.

Regarding `CC(C)c1cccc(C(C)C)c1OC(=O)NS(=O)(=O)N1CCCCC1` [Example 51, 2,6-Bis(1-methylethyl)-phenyl ester(1-piperidinylsulfonyl)-carbamic acid], in test [1] (setting [3]), the IC50 is greater than 100 µM. Also, in test [2] (Rattus norvegicus), the change in vivo at 30 mg/kg was -11%.

In the case of `CC(C)c1cccc(C(C)C)c1OC(=O)NS(=O)(=O)N1CCCC1` [Example 52, 2,6-Bis(1-methylethyl)-phenyl ester(1-pyrrolidinylsulfonyl)-carbamic acid], the change in vivo at 30 mg/kg in test [2] (Rattus norvegicus) was -53%.

In test [1], `CC(C)c1cccc(C(C)C)c1OC(=O)NS(=O)(=O)N1CCN(C)CC1` [Example 53, 2,6-Bis(1-methylethyl)-phenyl ester, monohydrochloride[(4-methyl-1-piperazinyl)-sulfonyl] carbamic acid] came in with a concentration for half-maximal inhibition (IC50) greater than 100 µM. The change in vivo at 30 mg/kg in test [2] (rat) was -21%.

As for `CC(C)c1cccc(C(C)C)c1OC(=O)NS(=O)(=O)N1CCc2ccccc21` [Example 54], in test [2] (Rattus norvegicus), the change in vivo at 30 mg/kg is -77%.

With `CC(C)c1cccc(C(C)C)c1NS(=O)(=O)NC(=O)Oc1c(-c2ccccc2)cccc1-c1ccccc1` [Example 56, [1,1':3', 1"-terphenyl]-2'-yl[[[2,6-bis(1-methylethyl)phenyl]amino]sulfonyl]carbamat], the IC50 in test [1] (setting [3]) was greater than 25 µM. In addition, the change in vivo at 30 mg/kg in test [2] (Rattus norvegicus) was -39%.

Take `CCCCN(CCCC)S(=O)(=O)NC(=O)Oc1c(C(C)C)cccc1C(C)C` [Example 57, 2,6-bis(1-methylethyl)phenyl[(dibutylamino)sulfonyl]carbamate monosodium salt]: the “% Change (mg/dl) (cholesterol)” value in test [2] (rat, monosodium salt) was -66 % Change (mg/dl).

Turning to `CN(C(=O)Oc1c(C(C)(C)C)cccc1C(C)(C)C)S(=O)(=O)NC(c1ccccc1)c1ccccc1` [Example 58, 2,6-bis(1,1-dimethylethyl)phenyl[[(diphenylmethyl)amino]sulfonyl]methyl carbamate], the change in vivo at 30 mg/kg in test [2] (Rattus norvegicus) was 4%.
